Assays:
[1] = solubility in water; assay type: physicochemical
[2] = solubility in ethyl acetate; assay type: physicochemical; conditions: at 25° C.

Row | solubility of PBA in water ([1]; at 25° C.) | solubility in H2O (in words) ([1]; H2O) | volume of ethyl acetate that dissolves 1 gram [2] | SMILES
1 | 2.5 g PBA per 100 g H2O |  |  | OB(O)c1ccccc1 [PBA, phenyl boronic acid, reference compound]
2 |  | extremely insoluble | 5 mL | c1ccc(B2OCC3OC4OB(c5ccccc5)OC4C3O2)cc1 (stereo not drawn) [XDE, xylose phenylboronic diester]

Reference: US12012639B2, “Processes for isolation and recovery of C5 sugars” (University of Louisville Research Foundation, Inc., priority 2017, dated 2024)
